Two molecules from ChEMBL document CHEMBL6177973, “A Novel Compound 3a-M1, from Metabolites of Sinomenine Derivative 3a, Exerts Potent Anti-Aplastic Anemia Activity via IP3R/ORAI-Mediated CTL Ferroptosis” (J Med Chem, 2025) can be followed below.

As usually defined, the IC50 is the midpoint of a concentration-inhibition curve. One may read the MTD as the highest dose tested that stayed within the study's limit of toxicity. The Cmax is the peak of the concentration-time curve.

Each structure is given as a SMILES string. Calls of active or inactive are those of the source. The rule behind the calls is not given here. Some results are limits rather than exact numbers.

The subject of data set [1] is Mus musculus. Briefly: Anti-aplastic anemia activity in C57BL/6J mouse model of immune-mediated bone marrow failure assessed as CD8+ T cells at 10 mg/kg, IG qd treated for 12 days by flow cytometry (reference value: 72.15 %). The class given is functional. The conditions noted are these: time 12 day.
In data set [2] the test system is Mus musculus. Briefly: Anti-aplastic anemia activity in C57BL/6J mouse model of immune-mediated bone marrow failure assessed as reduction in cytotoxic T lymphocytes hyperactivation at 5 to 15 mg/kg, IG qd treated for 12 days. The class given is functional, organism-based. The conditions noted are these: dose 5-15 mg/kg, time 12.0 day.
The subject of data set [3] is Mus musculus. Briefly: Anti-aplastic anemia activity in C57BL/6J mouse model of immune-mediated bone marrow failure assessed as increase in animal survival at 5 to 15 mg/kg, IG qd treated for 21 days. The format is functional, organism-based. The following applies: dose 5-15 mg/kg, time 21.0 day.
For data set [4], the system named is Mus musculus. Briefly: Anti-aplastic anemia activity in C57BL/6J mouse model of immune-mediated bone marrow failure assessed as CD4+ T cells at 10 mg/kg, IG qd treated for 12 days by flow cytometry (reference value: 12.93 %). The format is functional. The following applies: time 12 day.
Data set [5] deals with CTLL-2. Briefly: Cytotoxicity against mouse CTLL-2 cells assessed as inhibition of cell viability incubated for 72 hrs by CCK8 assay. The class given is functional, cell-based. The following applies: CTLL-2, 72 h, read-out: IC50. On the technique in general: Tetrazolium assays rely on reduction of a dye to a coloured formazan, in cell work by metabolically active cells.
The subject of data set [6] is CD8-positive T cell. The experiment in a line: Inhibition of CD3/CD28-activated CD8-positive T cell activation in BALB/c mouse lymph nodes assessed as decrease in lactate production at 1 to 10 uM incubated for 72 hrs. The format is functional, tissue-based. The conditions noted are these: Lymph node, dose 1-10 µM.
For data set [7], the system named is CD8-positive T cell. The experiment in a line: Inhibition of CD3/CD28-activated CD8-positive T cell activation in BALB/c mouse lymph nodes assessed as decrease in glucose consumption at 1 to 10 uM incubated for 72 hrs. The format is functional, tissue-based. The following applies: Lymph node, dose 1-10 µM.
In data set [8] the test system is Mus musculus. The experiment in a line: Anti-aplastic anemia activity in C57BL/6J mouse model of immune-mediated bone marrow failure assessed as increase in body weight at 5 to 15 mg/kg, IG qd treated for 21 days. The class given is functional, organism-based. The conditions noted are these: dose 5-15 mg/kg, time 21.0 day.
In data set [9] the test system is Mus musculus. Briefly: Anti-aplastic anemia activity in BALB/c mouse model of immune-mediated bone marrow failure assessed as increase in body weight at 10 mg/kg, po treated for 14 days. The format is functional, organism-based. The following applies: time 14.0 day.
In data set [10] the test system is CTLL-2. The experiment in a line: Induction of ferroptosis in mouse CTLL-2 cells assessed as increase in intracellular Ca2+ concentration at 10 uM incubated for 45 mins in presence of 2-APB by Fluo-4 AM dye based analysis. The class given is functional, cell-based.
In data set [11] the test system is Mus musculus. Briefly: Anti-aplastic anemia activity in C57BL/6J mouse model of immune-mediated bone marrow failure assessed as CD8+ T cells at 5 mg/kg, IG qd treated for 12 days by flow cytometry (reference value: 72.15 %). The format is functional. The conditions noted are these: time 12 day. For orientation: A flow cytometer gives signals particle by particle.

The test system of data set [12] is CTLL-2. The experiment in a line: Induction of ferroptosis in IL-2-stimulated mouse CTLL-2 cells assessed as increase in ROS level at 30 uM incubated for 6 hrs followed by Fer-1 addition measured after 10 hrs by DCFH-DA staining based flow cytometry. The following applies: time 16.0 hrs. The class given is functional, cell-based.
For data set [13], the system named is Mus musculus. Briefly: Anti-aplastic anemia activity in C57BL/6J mouse model of immune-mediated bone marrow failure assessed as restoration of naive CD8+ T cells at 5 to 15 mg/kg, IG qd treated for 12 days by flow cytometry. The conditions noted are these: dose 5-15 mg/kg, time 12.0 day. The class given is functional, organism-based.
Data set [14] is described as follows: Acute toxicity in 12 hr-fasted KM mouse assessed as maximum tolerable dose administered orally as single dose measured for 14 days. The conditions noted are these: in vivo, route po, time 14 day.
In data set [15] the test system is CD8-positive T cell. Briefly: Inhibition of CD3/CD28-activated CD8-positive T cell activation in BALB/c mouse lymph nodes assessed as decrease in cluster formation of cells at 1 to 10 uM incubated for 72 hrs by microscopy. The class given is functional, cell-based. The conditions noted are these: Lymph node, dose 1-10 µM.
For data set [16], the system named is CTLL-2. The experiment in a line: Induction of ferroptosis in mouse CTLL-2 cells assessed as increase in intracellular Ca2+ concentration incubated for 24 hrs by Fluo-4 AM dye based analysis. The class given is functional, cell-based.
Data set [17] concerns CD8-positive T cell. Briefly: Inhibition of CD3/CD28-activated CD8-positive T cell activation in BALB/c mouse lymph nodes assessed as decrease in CD69 expression level at 1 to 10 uM incubated for 72 hrs by flow cytometry. The format is functional, tissue-based. The conditions noted are these: Lymph node, dose 1-10 µM.
For data set [18], the system named is CTLL-2. The experiment in a line: Induction of ferroptosis in mouse CTLL-2 cells assessed as increase in free Fe2+ level incubated for 16 hrs by FerroOrange staining based flow cytometry. The conditions noted are these: dose 7.5-30 µM. The class given is functional, cell-based.
A short description of data set [19]: Cmax in Sprague-Dawley rat at 50 mg/kg, po measured for 0.083 to 24 hrs by HPLC analysis. The format is ADME, organism-based. The following applies: in vivo, time 0.083-24 hrs.
For data set [20], the system named is CTLL-2. The experiment in a line: Induction of ferroptosis in mouse CTLL-2 cells assessed as increase in ROS level at 10 uM incubated for 45 mins in presence of 2-APB. The format is functional, cell-based.
Data set [21] deals with Mus musculus. Briefly: Anti-aplastic anemia activity in C57BL/6J mouse model of immune-mediated bone marrow failure assessed as decrease in ratio of CD8+ to CD4+ T cells at 5 to 15 mg/kg, IG qd treated for 12 days by flow cytometry. The format is functional, organism-based. The conditions noted are these: dose 5-15 mg/kg, time 12.0 day.
In data set [22] the test system is Mus musculus. The experiment in a line: Anti-aplastic anemia activity in BALB/c mouse model of immune-mediated bone marrow failure assessed as increase in platelet cells at 10 mg/kg, po treated for 14 days. The format is functional, organism-based. The following applies: time 14.0 day.
For another data set, the system named is NRK-52E. Briefly: Induction of ferroptosis in rat NRK-52E cells assessed as increase in intracellular Ca2+ concentration at 10 uM by Fluo-4 AM dye based analysis. The format is functional, cell-based.
Data set [23] in a line: Drug metabolism in mouse spleen assessed as (4bR,9S)-1-(hydroxymethyl)-3,7-dimethoxy-11-methyl-6-oxo-6,8a,9,10-tetrahydro-5H-9,4b-(epiminoethano)phenanthren-4-yl cinnamate metabolite formation at 50 mg/kg, po measured for 0.083 to 8 hrs by HPLC analysis. The format is ADME, organism-based. The following applies: in vivo, time 0.083-8 hrs.
Data set [24] can be described thus: Stability in mouse small intestine assessed as compound remaining at 50 mg/kg, po measured for 0.083 to 8 hrs by HPLC analysis. The conditions noted are these: in vivo, time 0.083-8 hrs. The format is ADME, organism-based.
Data set [25] is described as follows: Stability in mouse blood assessed as compound remaining at 50 mg/kg, po measured for 0.083 to 8 hrs by HPLC analysis. The format is ADME, organism-based. The following applies: in vivo, time 0.083-8 hrs.
A short description of data set [26]: Drug metabolism in mouse thymus assessed as (4bR,9S)-1-(hydroxymethyl)-3,7-dimethoxy-11-methyl-6-oxo-6,8a,9,10-tetrahydro-5H-9,4b-(epiminoethano)phenanthren-4-yl cinnamate metabolite formation at 50 mg/kg, po measured for 0.083 to 8 hrs by HPLC analysis. The format is ADME, organism-based. The following applies: in vivo, time 0.083-8 hrs.
The nature of data set [27]: Drug metabolism in rat plasma assessed as double hydrolyzation/double demethylation-mediated metabolite formation at 50 mg/kg, po measured for 24 hrs by HRMS analysis. The class given is ADME, organism-based. The conditions noted are these: in vivo.
The nature of data set [28]: Drug metabolism in rat plasma assessed as cinnamic acid metabolite formation at 50 mg/kg, po measured for 24 hrs by HPLC-UV analysis. The class given is ADME, organism-based. The conditions noted are these: in vivo.
A short description of data set [29]: Stability in mouse thymus assessed as compound remaining at 50 mg/kg, po measured for 0.083 to 8 hrs by HPLC analysis. The class given is ADME, organism-based. The conditions noted are these: in vivo, time 0.083-8 hrs.
Data set [30] is described as follows: Drug metabolism in mouse plasma assessed as (4bR,9S)-1-(hydroxymethyl)-3,7-dimethoxy-11-methyl-6-oxo-6,8a,9,10-tetrahydro-5H-9,4b-(epiminoethano)phenanthren-4-yl cinnamate metabolite formation administered orally by HRMS analysis. The conditions noted are these: po. The format is ADME.
A short description of data set [31]: Drug metabolism in mouse thymus assessed as cinnamic acid metabolite formation at 50 mg/kg, po measured for 0.083 to 8 hrs by HPLC analysis. The format is ADME, organism-based. The conditions noted are these: in vivo, time 0.083-8 hrs.

Consider `COC1=C[C@@H]2[C@@H]3Cc4c(CO)cc(OC)c(OC(=O)/C=C/c5ccccc5)c4[C@]2(CCN3C)CC1=O`, for which the Activity was 38.55% in the data set on Mus musculus [1]; “Active; Improvement Observed During Early Stages Of Bone Marrow Failure” in the data set on Mus musculus [3]; 21.08% in the data set with Mus musculus [4]; 60.82% in the data set on Mus musculus [11]; “Active; Partial Restoration Of Naive Cd8+ T Cells Was Observed” in the data set on Mus musculus [13]; “Dose-dependent-effect” with CTLL-2 [18]. In the data set on NRK-52E, the Activity entry was “Not active; Elevation Was Smaller Than In Mouse Ctll-2 Cells”. Moreover, the outcome with Mus musculus [2], in the data set with Mus musculus [8], with Mus musculus [9], in the data set with CTLL-2 [16], in the data set with Mus musculus [21] and in the data set on Mus musculus [22] was Active. For the same molecule, the IC50 in the data set on CTLL-2 [5] amounted to 37.9 µM. Besides, the inhibition entry in the data set with CD8-positive T cell [6], in the data set on CD8-positive T cell [7], with CD8-positive T cell [15] and in the data set on CD8-positive T cell [17] was “Active” in each case. Moreover, the result with CTLL-2 [10], with CTLL-2 [12] and in the data set on CTLL-2 [20] was inactive. Besides, in [14], the MTD at 336 h was > 10000 mg/kg. Also, the Cmax in data set [19] was found to be 3.59 µg/mL.
On to `COC1=C[C@@H]2[C@@H]3Cc4c(COC(=O)/C=C/c5ccccc5)cc(OC)c(OC(=O)/C=C/c5ccccc5)c4[C@]2(CCN3C)CC1=O`, for which the Drug metabolism entry in data set [23], in data set [26], in data set [27], in data set [28], in data set [30] and in data set [31] was “metabolite_detected” in each case. Also, the Stability result is reported as “Stable” in data set [24], “Unstable” in data set [25] and “Unstable” in [29].
